Patent publication US20180147189A1, “ADMINISTRATION REGIMEN FOR THERAPEUTIC AGENTS FOR ATAXIA IN SPINOCEREBELLAR DEGENERATION” (KISSEI PHARMACEUTICAL CO., LTD., priority 2015, published 2018)

What was measured:
ataxia in SCD = details: NPL 3, cited from earlier work
[1] = Pharmacokinetic study in humans, single dose on an empty stomach; format: in vivo, human; details: single dose 0.1-10 mg, healthy adult males
Description: Rovatirelin trihydrate (0.1, 0.3, 1, 2.5, 5 or 10 mg) or placebo was administered to 48 healthy adult males (6 individuals per group and 12 on placebo) as a single dose on an empty stomach. Analysis of the pharmacokinetics of intact rovatirelin under this condition indicated linearity of Cmax (maximum plasma concentration), AUC0-∞ (area under the plasma concentration curve vs. time curve from time 0 to infinity), and Ae0-48 (cumulative amount excreted into urine from time 0-48 hours) of rovatirelin in a dosage range from 0.1-10 mg.

[2] = PTL 2; cited from earlier work
animal models = details: PTL 2; cited from earlier work
[3] = Repeated dose study in healthy adult males; format: in vivo, human; details: for transition of FT3 value (serum concentration, mean) / transition of FT4 values (serum concentration, mean): oral, 9 days
Description: To 50 healthy adult males (8 individuals per group and 10 on placebo), rovatirelin trihydrate (0.25, 0.5 or 1.0 mg) or placebo was orally administered once daily or rovatirelin trihydrate (0.25 or 0.5 mg) or placebo was orally administered twice daily after breakfast and after dinner, for 9 consecutive days.
Serum concentrations (mean) of FT3, FT4, TSH, and prolactin (PRL), and adverse events and the like were evaluated.

SCD patients [4] = experiment: Clinical trial of SCD patients (Phase II study); format: in vivo, human; details: for amount of change in the SARA total score: 24 weeks, pure cerebellar SCD patients, mean
Description: Rovatirelin trihydrate (0.4, 0.8, 1.6 or 3.2 mg) or placebo was orally administered to 225 SCD patients once daily after breakfast for 24 weeks (double-blind).
The efficacy endpoint was the amount of change in the SARA total score calculated by, as an example, the SARA total score at the final assessment in the treatment period (the final observed value in the treatment period) minus that at the end of the pre-observation period as an example. The safety endpoints were, as an example, the occurrence of adverse events and side effects, physiological examinations (e.g., blood pressure and pulses), and endocrinologic examinations (e.g., FT3 and FT4).
It is noted that the SARA total score was calculated by a sum of the SARA scores for each item ((i.e., gait (score 0-8), stance (score 0-6), sitting (score 0-4), speech disturbance (score 0-6), finger chase (score 0-4), nose-finger test (score 0-4), fast alternating hand movements (score 0-4), and heel-shin slide (score 0-4) (the score 0 is normal for all items)).

SCD patients [5] = experiment: Study of switch from conventional drugs to rovatirelin in SCD patients; format: in vivo, human; details: switch group from taltirelin, 24 weeks, P<0.01
Description: To the patients were orally administered rovatirelin trihydrate at 1.6 or 2.4 mg once daily after breakfast for 24 weeks (randomized, open-label parallel-group comparative study).
A 4-week pre-observation period was set prior to the start of the treatment period. For patients who received a conventional SCD agent taltirelin or protirelin agent (TRH agent) before the pre-observation period, the medication was continued until the end of the pre-observation period without changing its dosage and administration.
The same items as those listed in Example 4 were used as efficacy and safety endpoints.

[6] = system: pure cerebellar SCD patients; experiment: Long-term extension study of pure cerebellar SCD patients; format: in vivo, human; details: 2.4 mg once daily, at 52 weeks
Description: For patients who completed the phase III study (Example 4), rovatirelin trihydrate was administered at 1.6 or 2.4 mg once daily for 52 weeks (open-label parallel-group comparative study).
The same items as those listed in Example 4 were used as efficacy and safety endpoints, and deterioration rates (i.e., the number of deteriorated patients/total number of patients) in the SARA total score and SARA scores for each items were calculated in a similar manner.

[7] = system: patients with pure cerebellar SCD; experiment: Clinical trial of pure cerebellar SCD patients (Phase III study); format: in vivo, human
Description: Rovatirelin trihydrate at a dose of 1.6 or 2.4 mg or placebo was orally administered to patients with pure cerebellar SCD (SCA6, SCA31 or cortical cerebellar atrophy (CCA)) with ataxia once daily after breakfast for 28 weeks (double-blind; 124 patients in the 1.6 mg group, 122 patients in the 2.4 mg group, and 123 patients in the placebo group).
To appropriately assess the efficacy of rovatirelin trihydrate on ataxia, this study was performed on pure cerebellar SCD patients with a SARA gait score between 2 and 6 and a SARA total score of ≥6.
The same items as those listed in Example 3 were used as efficacy and safety endpoints. SCD is a disease that automatically becomes worse; therefore it is important in the treatment to retard the deterioration. Accordingly, patients with a […] in their SARA score compared with the time in week 0 were defined as deteriorated patients, and deterioration rates (i.e., the number of deteriorated patients/total number of patients) in the SARA total score and SARA scores for each item were calculated.

[8] = 0.5 mg once daily (0.5 mg/qd) compared with 0.25 mg twice daily
[9] = 1 mg once daily (1 mg/qd) compared with 0.5 mg twice daily
[10] = 2.4 mg group, elderly aged ≥65 years

Question: For CN1C(=O)C[C@@H](C(=O)N[C@@H](Cc2cnc[nH]2)C(=O)N2CCC[C@H]2C(N)=O)NC1=O.O.O.O.O [Taltirelin hydrate], which “total improvement level (subjective assessment of a physician) versus placebo” value (ataxia in SCD; after 28 weeks, ataxia in SCD) is on record?
Answer: significant difference

Question: And the “individual symptoms (symptom of ataxia)” value (ataxia in SCD; phase III double-blind comparative study)?
Answer: no significant improvement was observed

Question: What does the source list for C[C@@H]1OC(=O)N[C@@H]1C(=O)N[C@@H](Cc1cscn1)C(=O)N1CCC[C@H]1C [rovatirelin, (4S,5S)-5-methyl-N-{(2S)-1-[(2R)-2-methylpyrrolidin-1-yl]-1-oxo-3-(1,3-thiazol-4-yl)propan-2-yl}-2-oxo-1,3-oxazolidine-4-carboxamide]?
Answer: dose proportionality of AUC0-∞ [1]: linearity; dose proportionality of Ae0-48 (cumulative amount excreted into urine 0-48 hours) [1]: linearity; dose proportionality of Cmax (maximum plasma concentration) [1]: linearity; bioavailability (BA) [2]: high; effects in improving ataxia relative to taltirelin (animal models): at least 30 times

Question: What does the source list for C[C@@H]1OC(=O)N[C@@H]1C(=O)N[C@@H](Cc1cscn1)C(=O)N1CCC[C@H]1C [rovatirelin trihydrate]?
Answer: transition of FT3 value (serum concentration, mean) [3, 8]: proceeded at lower levels as a whole; transition of FT4 values (serum concentration, mean) [3, 8]: comparable for both groups or the transition for the 0.5 mg/qd group proceeded at slightly lower levels; FT4 concentrations versus reference limit ([3]; 0.5 mg twice daily, Day 5 and Day 9, reference limits 0.9 and 1.7 ng/dL): above the reference limit; transition of FT3 value (serum concentration, mean) [3, 9]: proceeded at lower levels as a whole; transition of FT4 values (serum concentration, mean) [3, 9]: proceeded at lower levels as a whole; amount of change in the SARA total score (SCD patients [4]; 0.4 mg once daily): −1.09 score; amount of change in the SARA total score (SCD patients [4]; 0.8 mg once daily): −1.27 score; discontinuation rate (SCD patients [4]; 1.6 mg group (placebo 15.6%)): 17.8%; amount of change in the SARA total score (SCD patients [4]; 1.6 mg once daily): −1.58 score; discontinuation rate (SCD patients [4]; 3.2 mg group (placebo 15.6%)): 28.9%; FT3 and FT4 concentrations versus upper reference limits (SCD patients [4]; 3.2 mg once daily): slightly above the upper reference limits; amount of change in the SARA total score (SCD patients [4]; 3.2 mg once daily): −1.65 score; side effect rate compared with placebo (Fisher's exact test) (SCD patients [4]; 3.2 mg once daily, P=0.002): significantly differed; amount of change in the SARA total score at an endpoint (SCD patients [5]; 1.6 mg once daily): −1.34; amount of change in the SARA total score at an endpoint (SCD patients [5]; 2.4 mg once daily): −1.35; deterioration rate for items (gait) [6]: 9.9%; deterioration rate of the SARA total score [6]: 21.0%; amount of change in the SARA total score ([6]; 81 patients who completed): −1.41; FT3 and FT4 concentrations versus normal range ([7]; 1.6 mg and 2.4 mg groups, 4 weeks after the start of administration, no further increase subsequently): reached the upper limit of the normal range; SARA gait and stance scores compared with the placebo group ([7]; 1.6 mg group): no improvement was observed; SARA total score compared with the placebo group ([7]; 1.6 mg group): no improvement was observed; discontinuation rate ([7]; 1.6 mg group (placebo 4.9%)): 16.0%; amount of change in the SARA total score ([7]; 1.6 mg once daily, 28 weeks, compared with pre-dose score): −0.75; discontinuation rate ([7]; 2.4 mg group (placebo 4.9%)): 19.8%; deterioration rate of the SARA total score ([7]; 2.4 mg group (placebo 30.9%)): 23.8%; amount of change in the SARA gait score [7, 10]: −0.19; amount of change in the SARA stance score [7, 10]: −0.54; amount of change in the SARA total score [7, 10]: −1.39; amount of change in the SARA total score ([7]; 2.4 mg once daily, 28 weeks, compared with pre-dose score): −1.22
